Structures can show the parent of a compound that is named as a salt.

In one data set the target is T1, dopamine D2 receptor (Rattus norvegicus, UniProt P61169).
T1 construct: from tissue; host or cells: rat striatal brain tissue homogenate
T1 sequence (P61169 whole entry): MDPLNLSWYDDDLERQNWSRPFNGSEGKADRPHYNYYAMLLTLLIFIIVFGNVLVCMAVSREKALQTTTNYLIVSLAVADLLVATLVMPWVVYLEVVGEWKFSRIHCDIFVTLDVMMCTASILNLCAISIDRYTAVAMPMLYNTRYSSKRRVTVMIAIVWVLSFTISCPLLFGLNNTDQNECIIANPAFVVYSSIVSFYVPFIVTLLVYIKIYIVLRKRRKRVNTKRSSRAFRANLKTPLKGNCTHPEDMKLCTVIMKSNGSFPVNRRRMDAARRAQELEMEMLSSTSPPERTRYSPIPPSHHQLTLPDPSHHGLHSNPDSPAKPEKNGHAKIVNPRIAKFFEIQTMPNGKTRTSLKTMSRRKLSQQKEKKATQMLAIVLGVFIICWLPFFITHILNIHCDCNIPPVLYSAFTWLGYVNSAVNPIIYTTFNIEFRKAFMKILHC
Put plainly: Dopamine D2 receptor affinity, 3H-quinpirole binding in homogenized rat striatal brain tissue.
Conditions: not given
The procedure:
Affinity for the dopamine D2 receptor was established by a modification of the standard experimental test procedure of Seemen and Schaus, European Journal of Pharmacology 203:105-109, 1991, wherein homogenized rat striatal brain tissue is incubated with ^3H-quinpirole and various concentrations of test compound, filtered and washed and counted in a Betaplate scintillation counter.
On to `c1ccc(CNCC2COc3ccc4nocc4c3O2)cc1` (stereo not drawn) [Example 1, Benzyl-(-7,8-dihydro-2,6,9-trioxa-3-aza-cyclopenta[a]naphthalen-8-ylmethyl)-amine], for which the IC50 was determined as 8.05 nM.
Still for that read-out and setting: for `c1ccc2c(c1)CCN(CC1COc3ccc4nocc4c3O1)C2` (stereo not drawn) [Example 2, 8-(3,4-Dihydro-1H-isoquinolin-2-ylmethyl)-7,8-dihydro-2,6,9-trioxa-3-aza-cyclopenta[a]naphthalene] the value was 58.8 nM.
On the same count and under the same terms, for `C1=C(c2c[nH]c3ccccc23)CCN(CC2COc3ccc4nocc4c3O2)C1` (stereo not drawn) [Example 3, 8-[4-(1H-Indol-3-yl)-3,6-dihydro-2H-pyridin-1-ylmethyl]-7,8-dihydro-2,6,9-trioxa-3-aza-cyclopenta[a]naphthalene] the value was 350 nM.
The compound `Fc1ccc2[nH]cc(CC3CCN(CC4COc5ccc6nocc6c5O4)CC3)c2c1` (stereo not drawn) [Example 4, 8-[4-(5-Fluoro-1H-indol-3-ylmethyl)-piperidin-1-ylmethyl]-7,8-dihydro-2,6,9-trioxa-3-aza-cyclopenta[a]naphthalene] returned an IC50 of 36.7 nM.
On the same count and under the same terms, for `O=C(c1ccc(F)cc1)C1CCN(CC2COc3ccc4nocc4c3O2)CC1` (stereo not drawn) [Example 5, [1-(7,8-Dihydro-2,6,9-trioxa-3-aza-cyclopenta[a]naphthalen-8-ylmethyl)-piperidin-4-yl]-(4-fluoro-phenyl)-methanone] the value was 32.4 nM; for `c1ccc2c(CCCNCC3COc4ccc5nocc5c4O3)c[nH]c2c1` (stereo not drawn) [Example 6, 2,3-Dihydro-N-[3-(1H-indol-3-yl)propyl]-1,4-dioxino[2,3-e][2,1]benzisoxazole-2-methanamine], 4.8 nM.
The compound `c1ccc(CCCCNCC2COc3ccc4nocc4c3O2)cc1` (stereo not drawn) [Example 7, (7,8-Dihydro-2,6,9-trioxa-3-aza-cyclopenta[a]naphthalen-8-ylmethyl)-(4-phenyl-butyl)-amine] had an IC50 of 4.1 nM.

Tested on in a further data set: not given
Assay: not given
Conditions: not given
`c1ccc(CCCCNCC2COc3ccc4nocc4c3O2)cc1` (stereo not drawn) (as salt: fumarate) (hydrate or solvate) [Example 7, (7,8-Dihydro-2,6,9-trioxa-3-aza-cyclopenta[a]naphthalen-8-ylmethyl)-(4-phenyl-butyl)-amine] yielded a melting point of 172 to 174 °C.
The same measure, in the same setting: for `c1ccc(CNCC2COc3ccc4nocc4c3O2)cc1` (stereo not drawn) (as salt: fumarate) [Example 1, Benzyl-(-7,8-dihydro-2,6,9-trioxa-3-aza-cyclopenta[a]naphthalen-8-ylmethyl)-amine] the value was 180 °C; for `c1ccc2c(c1)CCN(CC1COc3ccc4nocc4c3O1)C2` (stereo not drawn) (as salt: fumarate) [Example 2, 8-(3,4-Dihydro-1H-isoquinolin-2-ylmethyl)-7,8-dihydro-2,6,9-trioxa-3-aza-cyclopenta[a]naphthalene], 175 to 176 °C.
Same read-out and setting: for `O=C(c1ccc(F)cc1)C1CCN(CC2COc3ccc4nocc4c3O2)CC1` (stereo not drawn) (as salt: fumarate) [Example 5, [1-(7,8-Dihydro-2,6,9-trioxa-3-aza-cyclopenta[a]naphthalen-8-ylmethyl)-piperidin-4-yl]-(4-fluoro-phenyl)-methanone] the value was 204 to 206 °C; for `Fc1ccc2[nH]cc(CC3CCN(CC4COc5ccc6nocc6c5O4)CC3)c2c1` (stereo not drawn) (as salt: oxalate) [Example 4, 8-[4-(5-Fluoro-1H-indol-3-ylmethyl)-piperidin-1-ylmethyl]-7,8-dihydro-2,6,9-trioxa-3-aza-cyclopenta[a]naphthalene], 202 to 205 °C.
Still for that read-out and setting: for `c1ccc2c(CCCNCC3COc4ccc5nocc5c4O3)c[nH]c2c1` (stereo not drawn) (as salt: oxalate) [Example 6, 2,3-Dihydro-N-[3-(1H-indol-3-yl)propyl]-1,4-dioxino[2,3-e][2,1]benzisoxazole-2-methanamine] the value was 230 °C.
The compound `C1=C(c2c[nH]c3ccccc23)CCN(CC2COc3ccc4nocc4c3O2)C1` (stereo not drawn) [Example 3, 8-[4-(1H-Indol-3-yl)-3,6-dihydro-2H-pyridin-1-ylmethyl]-7,8-dihydro-2,6,9-trioxa-3-aza-cyclopenta[a]naphthalene] registered a melting point of 110 °C.

The subject of a further data set is dopamine receptors. Put plainly: Reduction of mouse locomotor activity (functional antagonism of dopamine receptors in vivo). As to conditions: sc; male CF-1 mice; horizontal activity counts 10 to 20 minutes after dosing. The method, then: The antipsychotic activity of the compounds of the invention was established by a determination of functional antagonism of dopamine receptors in vivo, specifically the compounds' ability to reduce mouse locomotor activity according to the method of Martin and Bendensky, J. Pharmacol. Exp. Therap. 229:706-711, 1984, in which mice (male, CF-1, Charles River, 20-30 g) were injected with vehicle or various doses of each drug and locomotor activity was measured for 30 minutes using automated infrared activity monitors (Omnitech—8×8 inch open field) located in a darkened room. ED50's were calculated from the horizontal activity counts collected from 10 to 20 minutes after dosing using a nonlinear regression analysis with inverse prediction.
As to `C1=C(c2c[nH]c3ccccc23)CCN(CC2COc3ccc4nocc4c3O2)C1` (stereo not drawn) [Example 3, 8-[4-(1H-Indol-3-yl)-3,6-dihydro-2H-pyridin-1-ylmethyl]-7,8-dihydro-2,6,9-trioxa-3-aza-cyclopenta[a]naphthalene], the “ED50 for reduction of mouse locomotor activity” value is listed as at least 50 mg/kg.
